Key:
[1] = target: T1, Serine/threonine-protein kinase TBK1 (Homo sapiens) (UniProt Q9UHD2)
T1 sequence (whole entry): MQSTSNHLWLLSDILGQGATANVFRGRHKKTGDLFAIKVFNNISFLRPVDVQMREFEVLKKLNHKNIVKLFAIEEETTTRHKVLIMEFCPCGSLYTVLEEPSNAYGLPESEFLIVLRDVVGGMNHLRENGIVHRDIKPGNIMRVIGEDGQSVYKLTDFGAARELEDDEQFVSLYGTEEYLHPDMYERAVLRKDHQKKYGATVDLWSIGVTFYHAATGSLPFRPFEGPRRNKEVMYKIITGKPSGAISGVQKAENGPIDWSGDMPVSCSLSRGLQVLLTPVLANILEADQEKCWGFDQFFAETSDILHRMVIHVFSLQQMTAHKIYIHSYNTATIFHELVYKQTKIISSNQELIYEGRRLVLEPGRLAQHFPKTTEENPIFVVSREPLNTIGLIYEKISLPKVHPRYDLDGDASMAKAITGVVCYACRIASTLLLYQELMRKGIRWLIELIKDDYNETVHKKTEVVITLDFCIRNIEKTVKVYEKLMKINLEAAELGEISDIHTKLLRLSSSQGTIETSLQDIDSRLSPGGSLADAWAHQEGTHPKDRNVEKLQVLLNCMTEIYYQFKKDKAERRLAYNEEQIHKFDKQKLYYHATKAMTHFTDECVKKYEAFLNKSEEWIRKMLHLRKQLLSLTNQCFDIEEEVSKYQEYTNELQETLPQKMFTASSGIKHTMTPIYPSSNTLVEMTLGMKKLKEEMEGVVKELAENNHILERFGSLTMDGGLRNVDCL

[2] = target: Homeodomain-interacting protein kinase 1 (Homo sapiens) (UniProt Q86Z02)
[3] = target: Mast/stem cell growth factor receptor Kit (Homo sapiens) (UniProt P10721)
Chain of Mast/stem cell growth factor receptor Kit (Homo sapiens) (P10721 whole entry): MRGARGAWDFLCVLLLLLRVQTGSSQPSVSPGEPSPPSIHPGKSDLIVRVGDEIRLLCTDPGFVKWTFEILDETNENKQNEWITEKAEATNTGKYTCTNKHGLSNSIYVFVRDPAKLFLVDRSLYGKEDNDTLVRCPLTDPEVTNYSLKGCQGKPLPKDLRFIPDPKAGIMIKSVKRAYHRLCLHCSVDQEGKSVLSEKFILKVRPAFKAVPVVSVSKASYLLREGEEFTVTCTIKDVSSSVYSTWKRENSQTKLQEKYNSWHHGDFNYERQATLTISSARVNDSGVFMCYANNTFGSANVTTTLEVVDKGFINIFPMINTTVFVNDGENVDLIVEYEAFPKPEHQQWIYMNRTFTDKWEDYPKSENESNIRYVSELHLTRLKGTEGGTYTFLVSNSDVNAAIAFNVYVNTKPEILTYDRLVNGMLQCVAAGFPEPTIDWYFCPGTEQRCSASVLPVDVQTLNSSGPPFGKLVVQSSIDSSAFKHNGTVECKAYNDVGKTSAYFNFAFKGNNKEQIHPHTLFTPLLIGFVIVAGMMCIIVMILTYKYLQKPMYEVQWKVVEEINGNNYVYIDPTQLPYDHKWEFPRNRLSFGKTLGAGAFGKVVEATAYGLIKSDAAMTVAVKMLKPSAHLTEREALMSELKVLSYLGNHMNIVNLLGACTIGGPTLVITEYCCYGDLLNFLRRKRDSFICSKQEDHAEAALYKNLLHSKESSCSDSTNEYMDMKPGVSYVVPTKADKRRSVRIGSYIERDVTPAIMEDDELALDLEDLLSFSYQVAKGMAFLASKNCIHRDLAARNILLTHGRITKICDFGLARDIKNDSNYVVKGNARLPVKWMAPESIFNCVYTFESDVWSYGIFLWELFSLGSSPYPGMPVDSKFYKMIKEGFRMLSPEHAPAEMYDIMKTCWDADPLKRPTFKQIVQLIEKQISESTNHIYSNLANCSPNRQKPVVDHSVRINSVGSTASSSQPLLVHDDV

[4] = target: Serine/threonine-protein kinase NIM1 (Homo sapiens) (UniProt Q8IY84)
Chain of Serine/threonine-protein kinase NIM1 (Homo sapiens) (Q8IY84 whole entry): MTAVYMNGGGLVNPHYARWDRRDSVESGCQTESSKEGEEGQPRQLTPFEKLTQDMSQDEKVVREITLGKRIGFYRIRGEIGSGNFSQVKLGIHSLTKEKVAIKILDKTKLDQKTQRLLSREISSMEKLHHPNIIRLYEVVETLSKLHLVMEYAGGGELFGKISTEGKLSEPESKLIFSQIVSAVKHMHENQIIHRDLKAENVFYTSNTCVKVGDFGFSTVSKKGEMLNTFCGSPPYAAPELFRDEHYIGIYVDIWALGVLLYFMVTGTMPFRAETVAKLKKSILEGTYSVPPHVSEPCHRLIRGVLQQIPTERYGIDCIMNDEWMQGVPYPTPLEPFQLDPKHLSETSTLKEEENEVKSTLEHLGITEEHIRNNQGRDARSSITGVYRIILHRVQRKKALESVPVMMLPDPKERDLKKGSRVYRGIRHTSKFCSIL

[5] = target: Muscarinic acetylcholine receptor M3 (Homo sapiens) (UniProt P20309); conditions: Compound concentration 10.0 uM
Chain of Muscarinic acetylcholine receptor M3 (Homo sapiens) (P20309 whole entry, looked up): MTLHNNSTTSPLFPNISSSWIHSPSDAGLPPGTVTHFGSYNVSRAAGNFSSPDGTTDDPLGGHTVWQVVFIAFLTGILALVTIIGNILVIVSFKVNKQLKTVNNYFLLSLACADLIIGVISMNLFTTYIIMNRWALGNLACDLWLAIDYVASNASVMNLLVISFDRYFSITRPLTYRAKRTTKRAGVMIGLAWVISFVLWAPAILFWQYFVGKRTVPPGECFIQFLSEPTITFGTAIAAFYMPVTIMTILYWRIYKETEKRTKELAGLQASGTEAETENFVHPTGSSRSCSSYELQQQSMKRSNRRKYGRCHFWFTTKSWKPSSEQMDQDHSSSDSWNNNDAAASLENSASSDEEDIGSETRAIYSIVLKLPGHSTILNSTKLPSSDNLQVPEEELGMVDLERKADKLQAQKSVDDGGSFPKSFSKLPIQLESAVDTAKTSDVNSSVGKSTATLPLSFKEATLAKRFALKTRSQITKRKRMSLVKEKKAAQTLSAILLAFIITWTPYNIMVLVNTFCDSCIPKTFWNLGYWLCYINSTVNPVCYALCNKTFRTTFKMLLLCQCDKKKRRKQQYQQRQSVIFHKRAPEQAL

[6] = target: Serine/threonine-protein kinase PAK 3 (Homo sapiens) (UniProt O75914)
Chain of Serine/threonine-protein kinase PAK 3 (Homo sapiens) (O75914 whole entry, looked up): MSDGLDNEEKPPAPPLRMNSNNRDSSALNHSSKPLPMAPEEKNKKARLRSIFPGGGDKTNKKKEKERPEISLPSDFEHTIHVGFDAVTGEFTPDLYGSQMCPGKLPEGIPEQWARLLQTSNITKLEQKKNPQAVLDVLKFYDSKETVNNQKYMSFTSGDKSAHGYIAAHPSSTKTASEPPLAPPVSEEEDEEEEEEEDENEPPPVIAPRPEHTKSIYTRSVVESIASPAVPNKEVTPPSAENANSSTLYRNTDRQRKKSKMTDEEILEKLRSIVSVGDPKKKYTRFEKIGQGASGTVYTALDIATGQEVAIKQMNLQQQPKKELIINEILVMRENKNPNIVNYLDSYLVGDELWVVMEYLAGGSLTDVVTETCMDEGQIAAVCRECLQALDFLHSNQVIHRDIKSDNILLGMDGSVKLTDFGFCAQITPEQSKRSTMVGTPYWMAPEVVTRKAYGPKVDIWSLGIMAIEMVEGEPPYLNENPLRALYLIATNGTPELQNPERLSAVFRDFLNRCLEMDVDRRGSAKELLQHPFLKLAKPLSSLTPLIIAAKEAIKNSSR

[7] = target: Cyclin-dependent kinase-like 1 (Homo sapiens) (UniProt Q00532)
Chain of Cyclin-dependent kinase-like 1 (Homo sapiens) (Q00532 whole entry): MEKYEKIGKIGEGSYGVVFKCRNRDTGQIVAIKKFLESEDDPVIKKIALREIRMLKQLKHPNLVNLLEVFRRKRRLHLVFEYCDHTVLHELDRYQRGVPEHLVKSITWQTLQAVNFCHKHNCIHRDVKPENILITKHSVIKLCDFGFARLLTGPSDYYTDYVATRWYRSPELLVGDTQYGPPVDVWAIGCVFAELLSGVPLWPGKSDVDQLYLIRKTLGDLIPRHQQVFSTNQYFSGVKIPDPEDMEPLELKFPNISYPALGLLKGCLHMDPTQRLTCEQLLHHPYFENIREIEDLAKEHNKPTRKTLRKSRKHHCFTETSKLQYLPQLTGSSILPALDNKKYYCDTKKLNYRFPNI

[8] = target: Calcium/calmodulin-dependent protein kinase type IV (Homo sapiens) (UniProt Q16566)
Chain of Calcium/calmodulin-dependent protein kinase type IV (Homo sapiens) (Q16566 whole entry): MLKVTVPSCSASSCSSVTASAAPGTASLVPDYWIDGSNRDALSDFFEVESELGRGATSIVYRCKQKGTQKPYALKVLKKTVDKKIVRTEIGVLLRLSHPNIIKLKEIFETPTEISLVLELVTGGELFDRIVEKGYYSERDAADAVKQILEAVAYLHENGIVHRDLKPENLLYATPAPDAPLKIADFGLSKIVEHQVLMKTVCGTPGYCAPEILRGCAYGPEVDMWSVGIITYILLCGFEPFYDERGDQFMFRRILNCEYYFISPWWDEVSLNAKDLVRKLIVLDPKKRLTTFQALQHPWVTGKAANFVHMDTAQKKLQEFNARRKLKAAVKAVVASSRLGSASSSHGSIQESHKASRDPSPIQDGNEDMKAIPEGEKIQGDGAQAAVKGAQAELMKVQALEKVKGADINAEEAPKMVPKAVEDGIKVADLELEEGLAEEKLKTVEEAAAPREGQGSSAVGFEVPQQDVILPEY

[9] = target: T2, Serine/threonine-protein kinase Nek1 (Homo sapiens) (UniProt Q96PY6)
T2 sequence (whole entry): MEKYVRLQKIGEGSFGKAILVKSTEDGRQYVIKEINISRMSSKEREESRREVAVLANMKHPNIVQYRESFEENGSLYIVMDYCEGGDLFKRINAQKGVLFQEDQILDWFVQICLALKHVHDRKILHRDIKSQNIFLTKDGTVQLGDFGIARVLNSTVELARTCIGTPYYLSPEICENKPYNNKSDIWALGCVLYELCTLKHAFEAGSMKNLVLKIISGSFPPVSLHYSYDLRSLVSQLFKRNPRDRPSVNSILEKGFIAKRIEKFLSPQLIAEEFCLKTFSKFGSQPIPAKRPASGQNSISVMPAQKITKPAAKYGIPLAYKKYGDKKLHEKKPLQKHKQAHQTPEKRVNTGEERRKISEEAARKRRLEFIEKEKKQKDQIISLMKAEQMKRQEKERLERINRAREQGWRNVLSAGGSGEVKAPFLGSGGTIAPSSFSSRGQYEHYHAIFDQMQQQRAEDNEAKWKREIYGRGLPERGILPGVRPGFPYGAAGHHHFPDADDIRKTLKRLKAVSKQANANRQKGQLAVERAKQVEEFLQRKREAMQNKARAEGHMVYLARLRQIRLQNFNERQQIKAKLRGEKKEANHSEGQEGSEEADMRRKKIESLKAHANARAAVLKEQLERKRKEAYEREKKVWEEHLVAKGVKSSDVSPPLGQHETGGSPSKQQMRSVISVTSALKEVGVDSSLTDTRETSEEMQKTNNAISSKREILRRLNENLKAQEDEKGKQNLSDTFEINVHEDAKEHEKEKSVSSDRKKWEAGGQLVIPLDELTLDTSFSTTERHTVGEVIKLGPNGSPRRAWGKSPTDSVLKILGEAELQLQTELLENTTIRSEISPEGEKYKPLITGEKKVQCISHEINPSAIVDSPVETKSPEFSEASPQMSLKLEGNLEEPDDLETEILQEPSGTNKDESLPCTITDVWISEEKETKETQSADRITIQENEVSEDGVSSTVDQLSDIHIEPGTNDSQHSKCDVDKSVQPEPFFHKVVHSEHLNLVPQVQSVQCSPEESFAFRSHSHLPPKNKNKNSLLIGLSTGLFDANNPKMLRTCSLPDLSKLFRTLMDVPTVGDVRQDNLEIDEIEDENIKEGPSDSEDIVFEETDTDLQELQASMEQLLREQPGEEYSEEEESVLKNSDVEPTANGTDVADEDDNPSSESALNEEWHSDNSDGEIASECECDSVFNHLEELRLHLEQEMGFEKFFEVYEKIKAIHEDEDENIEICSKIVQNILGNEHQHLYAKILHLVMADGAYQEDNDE

[10] = target: T3, Serine/threonine-protein kinase Sgk3 (Homo sapiens) (UniProt Q96BR1)
T3 sequence (whole entry): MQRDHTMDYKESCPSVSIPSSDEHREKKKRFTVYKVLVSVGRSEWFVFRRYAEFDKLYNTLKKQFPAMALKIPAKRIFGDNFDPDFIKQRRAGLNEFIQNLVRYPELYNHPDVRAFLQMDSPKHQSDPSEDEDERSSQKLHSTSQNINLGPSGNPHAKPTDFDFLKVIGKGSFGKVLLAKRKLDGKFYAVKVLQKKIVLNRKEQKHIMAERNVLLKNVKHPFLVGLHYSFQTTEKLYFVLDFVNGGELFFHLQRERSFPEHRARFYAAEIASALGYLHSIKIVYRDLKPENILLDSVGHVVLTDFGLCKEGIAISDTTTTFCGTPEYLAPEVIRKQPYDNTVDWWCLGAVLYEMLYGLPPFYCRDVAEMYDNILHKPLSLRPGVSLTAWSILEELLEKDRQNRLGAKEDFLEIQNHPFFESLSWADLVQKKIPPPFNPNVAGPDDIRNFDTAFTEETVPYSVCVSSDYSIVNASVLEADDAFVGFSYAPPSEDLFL

[11] = target: Ephrin type-A receptor 2 (Homo sapiens) (UniProt P29317)
Chain of Ephrin type-A receptor 2 (Homo sapiens) (P29317 whole entry): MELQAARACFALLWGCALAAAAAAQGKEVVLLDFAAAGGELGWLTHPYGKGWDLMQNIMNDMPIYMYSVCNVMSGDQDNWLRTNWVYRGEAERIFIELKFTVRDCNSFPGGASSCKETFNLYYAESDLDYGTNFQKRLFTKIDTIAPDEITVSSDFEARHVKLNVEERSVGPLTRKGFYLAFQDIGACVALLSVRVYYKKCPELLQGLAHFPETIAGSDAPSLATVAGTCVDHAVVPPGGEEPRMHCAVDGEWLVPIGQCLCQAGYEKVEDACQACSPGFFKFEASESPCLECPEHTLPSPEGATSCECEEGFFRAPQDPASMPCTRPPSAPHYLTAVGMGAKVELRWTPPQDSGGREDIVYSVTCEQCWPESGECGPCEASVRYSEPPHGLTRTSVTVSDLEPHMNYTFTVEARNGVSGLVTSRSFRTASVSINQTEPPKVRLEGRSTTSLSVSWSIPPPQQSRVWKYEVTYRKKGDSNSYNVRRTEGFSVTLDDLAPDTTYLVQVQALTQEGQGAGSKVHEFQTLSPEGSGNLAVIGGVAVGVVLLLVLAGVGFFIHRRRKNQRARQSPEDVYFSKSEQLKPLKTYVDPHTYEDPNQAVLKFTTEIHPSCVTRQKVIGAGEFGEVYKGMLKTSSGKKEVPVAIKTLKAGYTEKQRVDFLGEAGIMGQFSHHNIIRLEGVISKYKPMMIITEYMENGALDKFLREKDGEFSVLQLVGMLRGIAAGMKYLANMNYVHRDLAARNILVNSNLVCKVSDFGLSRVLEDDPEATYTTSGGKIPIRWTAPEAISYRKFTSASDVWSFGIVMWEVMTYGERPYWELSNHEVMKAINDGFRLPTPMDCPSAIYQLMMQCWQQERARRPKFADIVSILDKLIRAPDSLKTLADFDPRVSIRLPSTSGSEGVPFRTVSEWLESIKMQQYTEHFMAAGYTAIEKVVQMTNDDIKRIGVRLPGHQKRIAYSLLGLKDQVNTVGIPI

[12] = Compound concentration 100.0 nM
[13] = Compound concentration 1000.0 nM

C[C@@H]1CN(c2cc(-c3n[nH]c4ccc(OC5(C)CC5)cc34)ncn2)C[C@H](C)O1 [MLi-2]
inactive: residual activity [1, 12] 68% | residual activity [2, 12] 69% | residual activity [3, 12] 70% | residual activity [4, 12] 72% | inhibition [5] 7.93% | residual activity [6, 12] 83% | residual activity [7, 12] 89% | residual activity [8, 12] 78% | residual activity [9, 12] 100% | residual activity [10, 12] 84% | residual activity [11, 12] 72%

C[C@@H]1CN(c2cc(-c3nn(C)c4ccc(OC5(C)CC5)cc34)ncn2)C[C@H](C)O1 [MLi-2-NC]
inactive: residual activity [1, 13] 75% | residual activity [2, 13] 85% | residual activity [3, 13] 97% | residual activity [4, 13] 74% | inhibition [5] 6.03% | residual activity [6, 13] 100% | residual activity [7, 13] 89% | residual activity [8, 13] 67% | residual activity [9, 13] 83% | residual activity [10, 13] 67% | residual activity [11, 13] 100%
